US10933113B2, “Use of a compound, pharmaceutical composition, and therapeutic method for the treatment or prevention of convulsions” (PROTEIMAX BIO[…]A, priority 2016, dated 2021)

System: pilocarpine model
Experiment: pilocarpine model, oral test compound 10 minutes before intraperitoneal pilocarpine
Assay type: in vivo, Mus musculus or mouse
Experimental: In some instances, the anticonvulsive effects of the composition of the invention have been evaluated in vivo upon oral administration to animals. The pharmaceutical composition of the invention was administered to mammals (Mus musculus or mouse) with oral dose of treatment, as compared to other compounds or to saline control. In these experiments, the test compounds were administered orally 10 minutes prior to the (intraperitoneal) administration of pilocarpine. Pilocarpine hydrochloride (320 mg/kg, Merck), dissolved in 0.9% sterile saline, was given intraperitoneally for induction of SE (status epileticus) (Turski et al., 1983). In the Turski model, the neurotoxic effects begin about 15-25 minutes after the injection of Pilo, with the occurrence of motor and limbic seizures, the animals evolving to a state of continuous (clonic) seizures that characterize SE Sanabria and Cavalheiro, 2000).
In this embodiment, the anticonvulsant effect of the composition of the invention prepared according to example 1 was evaluated by prior administration of the inventive composition and subsequent administration of pilocarpine to animals. Administration of pilocarpine leads to severe brain damage, neurotoxicity, and usually culminates in the death of animals.
The composition of the invention prepared according to Example 1 was pre-administered to the animals.

[1] = 1000 μg/kg oral, group n=5, pilocarpine 320 mg/kg i.p.

Row | Molecule | survival time compared with control (FIG. 1) (1000 μg/kg oral) | survival time compared with control (FIG. 1) (600 μg/kg oral) | number of animals that died in the group [1] | remaining animals that remained alive for more than a week [1] | mean survival time for the group (1000 μg/kg oral, versus control, Hp 600 μg/kg, DIIADDEPLT 1000 μg/kg) | occurrence of typical side effects of other anticonvulsants, such as prostration and nasal bleeding (oral administration, mice) | brain injury related symptoms and survival after pilocarpine (prior oral administration of the composition of Example 1) | time for the occurrence of the first salivation (FIG. 4) (prior oral administration, pilocarpine-induced salivation) | time for the occurrence of the first seizure (FIG. 6), P vs Control, Hp 600 μg/kg, Pep19 1000 μg/kg (starred group, by exclusion Hp 1000 μg/kg oral)
1 | DIIADDEPLT [peptide used as another control, reference compound] | not statistically significant |  |  |  |  |  |  |  | 
2 | CC(C)C[C@H](NC(=O)[C@H](Cc1ccccc1)NC(=O)[C@H](CCCCN)NC(=O)[C@H](Cc1ccccc1)NC(=O)[C@H](CC(N)=O)NC(=O)[C@@H](NC(=O)[C@@H]1CCCN1)C(C)C)C(=O)N[C@@H](CO)C(=O)N[C@@H](Cc1cnc[nH]1)C(=O)O [Hp, PVNFKFLSH] |  | not statistically significant | one | 4 | significantly different and higher than the others | has not been observed | the vast majority of the animals subjected to these experiments had no brain injury related symptoms and survived without apparent damage | substantial change in the time profile for the occurrence of the first salivation | < 0.001
